Numbered stars: 1 amine (or outer) side, 2 acyl side, 3 side chain; on linkers, the order of the positions; unused ones are H or OH. Bridge positions count the residues as written; N and C are the ends. Square brackets hold non-standard residues; d marks the D form. Side chains are listed from the residue outwards. Peptide text beside a SMILES is read from it. * marks the point of attachment. C18 diacid = O=C(O)CCCCCCCCCCCCCCCCC(=O)*; γGlu = O=C(O)[C@H](CCC(=O)[*:2])N[*:1]; Dab = NCC[C@H](N)C(=O)O; Aib = CC(C)(N)C(=O)O

Assay [1] deals with T1, human calcitonin receptor (hCTR) (Homo sapiens, UniProt P30988).
T1 construct: expressed in transfected cells
T1 sequence (P30988 25-474): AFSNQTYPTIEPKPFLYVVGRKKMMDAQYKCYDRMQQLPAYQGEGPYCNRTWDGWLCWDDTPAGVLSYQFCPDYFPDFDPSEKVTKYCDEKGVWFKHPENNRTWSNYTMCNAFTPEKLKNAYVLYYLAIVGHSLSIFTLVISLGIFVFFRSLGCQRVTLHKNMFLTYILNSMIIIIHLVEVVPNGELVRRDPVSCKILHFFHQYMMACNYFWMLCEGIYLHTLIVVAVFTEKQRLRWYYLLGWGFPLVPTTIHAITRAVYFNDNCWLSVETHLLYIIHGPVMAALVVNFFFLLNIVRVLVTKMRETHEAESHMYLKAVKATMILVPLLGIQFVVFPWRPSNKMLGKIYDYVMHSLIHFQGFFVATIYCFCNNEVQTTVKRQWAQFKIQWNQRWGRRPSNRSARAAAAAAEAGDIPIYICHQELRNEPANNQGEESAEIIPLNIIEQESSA
Put plainly: cAMP production in 1321N1 cells with stable recombinant expression of human calcitonin receptor (hCTR). It counts as cell-based. The settings on record: cAMP, 1321N1 cells, assay buffer with 0.1% BSA; read-out: EC50 (pM) hCTR. As to the method:
(§1) The functional activities of lipidated pramlintide analogue peptides, such as cAMP production, were tested in 1321N1 cell line with stable recombinant expression of human calcitonin receptor (hCTR) or human amylin receptor (calcitonin receptor co-expressed with receptor activity modifying protein, RAMP3) (hAMYR3) or HEK cells with stable recombinant expression of rat calcitonin receptor (rat CTR) or rat amylin receptor (calcitonin receptor co-expressed with receptor activity modifying protein, RAMP3) (Rat AMYR3).
(§2) Cryopreserved cell stock was thawed rapidly in a water-bath, suspended in assay buffer (0.1% BSA (Sigma # A3059) in HBSS (Sigma # H8264) with 25 mM HEPES, pH 7.4 and containing 0.5 mM IB MX (Sigma# 17018)) and spun at 240×g for 5 minutes. Cells were re-suspended in assay buffer at a batch-dependent optimized concentration (e.g. hCTR cells at 0.125×10^5 cells/mL, hAMYR3 cells at 0.125×10^5 cells/mL, rat CTR cells at 1x10^5 cells/mL, rat AMYR3 at 2×10^5 cells/mL).
(§3) The test peptide stock was prepared in DMSO and diluted in assay buffer to reach stated concentrations and transferred in duplicates into a 384-black shallow well microtitre assay plate (Corning # 3676). Cells were added to the assay plate, incubated at room temperature for 30 minutes and the cAMP level measured using cAMP dynamic 2 HTRF kit (Cisbio, Cat # 62AM4PEJ), following the two step protocol as per manufacturer's recommendations. The plates were read on an Envision (Perkin Elmer) using excitation wavelength of 320 nm and emission wavelengths of 620nm & 665 nm.
(§4) Data was transformed to % Delta F as described in the manufacturer's guidelines and analyzed as percent activation of maximal amylin or calcitonin effect by 4-parameter logistic fit to determine EC50 values. The selectivity of a peptide to hAMYR vs hCTR is defined as a ratio of EC50 values at the two receptors.
Background: Changes in cAMP serve as a functional read-out for many G protein-coupled receptors.

Assay [2] addresses T2, human amylin receptor (calcitonin receptor co-expressed with receptor activity modifying protein, RAMP3) (hAMYR3) (Homo sapiens, UniProt O60896+P30988).
T2 construct: expressed in transfected cells
T2 sequence (P30988 25-474): T1 sequence (P30988 25-474)
T2 sequence (O60896 24-148 partner): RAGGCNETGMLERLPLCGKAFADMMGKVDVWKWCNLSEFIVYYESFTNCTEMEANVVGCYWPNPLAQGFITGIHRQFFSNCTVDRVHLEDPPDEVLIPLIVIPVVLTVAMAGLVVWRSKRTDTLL
Put plainly: cAMP production in 1321N1 cells with stable recombinant expression of human amylin receptor (hAMYR3). The assay is classed as cell-based. The settings on record: for Ratio (selectivity hAMYR vs hCTR, ratio of EC50 values at the two receptors): EC50 hCTR / EC50 hAMYR3; for EC50: cAMP, 1321N1 cells, assay buffer with 0.1% BSA, read-out: EC50 (pM) hAMYR3. As to the method: as §1, §2, §3, §4

The EC50 is the concentration giving half of the maximal effect. `CC[C@H](C)[C@H](NC(=O)[C@H](C)NC(=O)[C@@H]1CCCN1C(=O)[C@H](Cc1ccccc1)NC(=O)[C@H](CC(N)=O)NC(=O)C(C)(C)NC(=O)[C@H](CO)NC(=O)[C@H](CO)NC(=O)[C@H](Cc1c[nH]cn1)NC(=O)[C@@H](NC(=O)[C@H](CC(C)C)NC(=O)[C@H](Cc1ccccc1)NC(=O)[C@H](CC(N)=O)NC(=O)[C@H](C)NC(=O)[C@H](CC(C)C)NC(=O)[C@H](CCCNC(=N)N)NC(=O)[C@H](CCC(N)=O)NC(=O)[C@@H](NC(=O)[C@H](C)NC(=O)[C@@H]1CSSC[C@H](NC(=O)[C@@H](N)CCCCNC(=O)CC[C@H](NC(=O)CC[C@H](NC(=O)CCCCCCCCCCCCCCCCC(=O)O)C(=O)O)C(=O)O)C(=O)N[C@@H](CC(N)=O)C(=O)N[C@@H]([C@@H](C)O)C(=O)N[C@@H](C)C(=O)N[C@@H]([C@@H](C)O)C(=O)N1)[C@@H](C)O)C(C)C)C(=O)N[C@@H](CC(C)C)C(=O)N[C@@H](CO)C(=O)N1CCC[C@H]1C(=O)N[C@H](C(=O)N[C@@H](CCN)C(=O)N[C@H](C(=O)NCC(=O)N[C@@H](CO)C(=O)N[C@@H](CC(N)=O)C(=O)N[C@H](C(=O)N[C@@H](Cc1ccc(O)cc1)C(N)=O)[C@@H](C)O)C(C)C)[C@@H](C)O` [Peptide 122, K(γE-γE-C18diacid)[CNTATC]ATQRLANFLVHSS(Aib)NFPAILSPT(Dab)VGSNTY-amide] (H-K([γGlu-γGlu-C18 diacid])CNTATCATQRLANFLVHSS[Aib]NFPAILSPT[Dab]VGSNTY-NH2; disulfide 2-7): the EC50 in assay [1] came to 6180 pM. Moreover, in assay [2], the “Ratio (selectivity hAMYR vs hCTR, ratio of EC50 values at the two receptors)” value worked out at 9 and the EC50 came out at 655 pM.
The matching figures for `CC[C@H](C)[C@H](NC(=O)[C@@H]1CCCN1C(=O)CNC(=O)[C@H](Cc1ccccc1)NC(=O)[C@H](CC(N)=O)NC(=O)C(C)(C)NC(=O)[C@H](CO)NC(=O)[C@H](CO)NC(=O)[C@H](Cc1c[nH]cn1)NC(=O)[C@@H](NC(=O)[C@H](CC(C)C)NC(=O)[C@H](Cc1ccccc1)NC(=O)[C@H](CC(N)=O)NC(=O)[C@H](C)NC(=O)[C@H](CC(C)C)NC(=O)[C@H](CCCNC(=N)N)NC(=O)[C@H](CCC(N)=O)NC(=O)[C@@H](NC(=O)[C@H](C)NC(=O)[C@@H]1CSSC[C@H](NC(=O)[C@H](CCCCN)NC(=O)[C@@H](N)CCCCNC(=O)CC[C@H](NC(=O)CCCCCCCCCCCCCCCCC(=O)O)C(=O)O)C(=O)N[C@@H](CC(N)=O)C(=O)N[C@@H]([C@@H](C)O)C(=O)N[C@@H](C)C(=O)N[C@@H]([C@@H](C)O)C(=O)N1)[C@@H](C)O)C(C)C)C(=O)N[C@@H](CC(C)C)C(=O)N1CCC[C@H]1C(=O)N1CCC[C@H]1C(=O)N[C@H](C(=O)N[C@@H](CC(N)=O)C(=O)N[C@H](C(=O)NCC(=O)N[C@@H](CO)C(=O)N[C@@H](CC(N)=O)C(=O)N[C@H](C(=O)N1CCC[C@H]1C(N)=O)[C@@H](C)O)C(C)C)[C@@H](C)O` [Peptide 58, K(γE-C18diacid)K[CNTATC]ATQRLANFLVHSS(Aib)NFGPILPPTNVGSNTP-amide] (H-K([γGlu-C18 diacid])KCNTATCATQRLANFLVHSS[Aib]NFGPILPPTNVGSNTP-NH2; disulfide 3-8): 65 pM, 1 and 71 pM.
Taken in the same sequence, the figures for `CC[C@H](C)[C@H](NC(=O)[C@@H]1CCCN1C(=O)CNC(=O)[C@H](Cc1ccccc1)NC(=O)[C@H](CC(N)=O)NC(=O)C(C)(C)NC(=O)[C@H](CO)NC(=O)[C@H](CO)NC(=O)[C@H](Cc1c[nH]cn1)NC(=O)[C@@H](NC(=O)[C@H](CC(C)C)NC(=O)[C@H](Cc1ccccc1)NC(=O)[C@H](CC(N)=O)NC(=O)[C@H](C)NC(=O)[C@H](CC(C)C)NC(=O)[C@H](CCCNC(=N)N)NC(=O)[C@H](CCC(N)=O)NC(=O)[C@@H](NC(=O)[C@H](C)NC(=O)[C@@H]1CSSC[C@H](NC(=O)[C@H](CCCCN)NC(=O)[C@@H](N)CCCCNC(=O)CC[C@H](NC(=O)CC[C@H](NC(=O)CCCCCCCCCCCCCCCCC(=O)O)C(=O)O)C(=O)O)C(=O)N[C@@H](CC(N)=O)C(=O)N[C@@H]([C@@H](C)O)C(=O)N[C@@H](C)C(=O)N[C@@H]([C@@H](C)O)C(=O)N1)[C@@H](C)O)C(C)C)C(=O)N[C@@H](CC(C)C)C(=O)N1CCC[C@H]1C(=O)N1CCC[C@H]1C(=O)N[C@H](C(=O)N[C@@H](CC(N)=O)C(=O)N[C@H](C(=O)NCC(=O)N[C@@H](CO)C(=O)N[C@@H](CCCNC(=N)N)C(=O)N[C@H](C(=O)N[C@@H](Cc1ccc(O)cc1)C(N)=O)[C@@H](C)O)C(C)C)[C@@H](C)O` [Peptide 74, K(γE-γE-C18diacid)K[CNTATC]ATQRLANFLVHSS(Aib)NFGPILPPTNVGSRTY-amide] (H-K([γGlu-γGlu-C18 diacid])KCNTATCATQRLANFLVHSS[Aib]NFGPILPPTNVGSRTY-NH2; disulfide 3-8; N-terminus assumed) were 4570 pM, 13 and 356 pM.
Taken in the same sequence, the figures for `CC[C@H](C)[C@H](NC(=O)[C@@H]1CCCN1C(=O)CNC(=O)[C@H](Cc1ccccc1)NC(=O)[C@H](CC(N)=O)NC(=O)C(C)(C)NC(=O)[C@H](CO)NC(=O)[C@H](CO)NC(=O)[C@H](Cc1c[nH]cn1)NC(=O)[C@@H](NC(=O)[C@H](CC(C)C)NC(=O)[C@H](Cc1ccccc1)NC(=O)[C@H](CC(N)=O)NC(=O)[C@H](C)NC(=O)[C@H](CC(C)C)NC(=O)[C@H](CCCNC(=N)N)NC(=O)[C@H](CCC(N)=O)NC(=O)[C@@H](NC(=O)[C@H](C)NC(=O)[C@@H]1CSSC[C@H](NC(=O)[C@H](CCCCN)NC(=O)[C@@H](N)CCCCNC(=O)CC[C@H](NC(=O)CCCCCCCCCCCCCCCCC(=O)O)C(=O)O)C(=O)N[C@@H](CC(N)=O)C(=O)N[C@@H]([C@@H](C)O)C(=O)N[C@@H](C)C(=O)N[C@@H]([C@@H](C)O)C(=O)N1)[C@@H](C)O)C(C)C)C(=O)N[C@@H](CC(C)C)C(=O)NC(C)(C)C(=O)N1CCC[C@H]1C(=O)N[C@H](C(=O)N[C@@H](CC(N)=O)C(=O)N[C@H](C(=O)NCC(=O)N[C@@H](CO)C(=O)N[C@@H](CC(N)=O)C(=O)N[C@H](C(=O)N[C@@H](Cc1ccc(O)cc1)C(N)=O)[C@@H](C)O)C(C)C)[C@@H](C)O` [Peptide 88, K(γE-C18diacid)K[CNTATC]ATQRLANFLVHSS(Aib)NFGPIL(Aib)PTNVGSNTY-amide] (H-K([γGlu-C18 diacid])KCNTATCATQRLANFLVHSS[Aib]NFGPIL[Aib]PTNVGSNTY-NH2; disulfide 3-8; N-terminus assumed) were 1170 pM, 4 and 281 pM.

These data come from US20240067693A1, “POLYPEPTIDES AND USES THEREOF” (MEDIMMUNE LIMITED, priority 2020, published 2024).
